test system: HCV replicon; experiment: Replicon based assay of HCV replication inhibition (NPT ELISA); assay type: cell-based, Hepatitis C virus; conditions: Hepatitis C virus, replicon based assay of HCV replication inhibition; Table IV; read-out: Activity
Outline: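 NPT (neomycin phosphotransferase) content, proportional to replicon replication, quantified by capture ELISA on day four. Before that, replicon-bearing Huh-7 cells in G418-free screening medium were exposed three days at 37° C to compound, typically six doses from 10 to 0.03 micromolar, with equal DMSO across wells.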

| SMILES | EC50 [nM] |
| --- | --- |
| Cc1c(C)c(C)c(C(=O)CCc2cccc(Nc3nc(-c4cccnc4)cs3)c2)c(C)c1C [compound 898, 3-(3-(4-(pyridin-3-yl)thiazol-2-ylamino)phenyl)-1-(2,3,4,5,6-pentamethylphenyl)propan-1-one] | < 1000 |
| Cc1c(Nc2nc(-c3cccnc3)cs2)cccc1C(F)(F)F [compound 899, N-(3-(trifluoromethyl)-2-methylphenyl)-4-(pyridin-3-yl)thiazol-2-amine] | 1000 to 10000 |
| CCCCc1ccc(Nc2nc(-c3cccnc3)cs2)c(C)c1 [compound 900, N-(4-butyl-2-methylphenyl)-4-(pyridin-3-yl)thiazol-2-amine] | < 1000 |
| COc1cc(Nc2nc(-c3cccnc3)cs2)cc(OC)c1 [compound 901, N-(3,5-dimethoxyphenyl)-4-(pyridin-3-yl)thiazol-2-amine] | 1000 to 10000 |
| CCC(C)(C)c1ccc(Oc2ccccc2)c(Nc2nc(-c3cccnc3)cs2)c1 [compound 902, N-(5-tert-pentyl-2-phenoxyphenyl)-4-(pyridin-3-yl)thiazol-2-amine] | < 1000 |
| COc1cc(-c2ccccc2)c(C)cc1Nc1nc(-c2cccnc2)cs1 [compound 903] | < 1000 |
| O=C(O)c1ccc(Oc2ccc(Nc3nc(-c4cccnc4)cs3)cc2)cc1 [compound 904, 4-(4-(4-(pyridin-3-yl)thiazol-2-ylamino)phenoxy)benzoic acid] | < 1000 |
| Cc1ccc(-c2ccccc2)cc1Nc1nc(-c2cccnc2)cs1 [compound 905] | > 10000 |
| Cc1cc(C)cc(Nc2nc(-c3cccnc3)cs2)c1 [compound 906, N-(3,5-dimethylphenyl)-4-(pyridin-3-yl)thiazol-2-amine] | 1000 to 10000 |
| CCOC(=O)/C=C/c1ccc(Nc2nc(-c3cccnc3)cs2)cc1 [compound 907, (E)-ethyl 3-(4-(4-(pyridin-3-yl)thiazol-2-ylamino)phenyl)acrylate] | > 10000 |
| FC(F)(F)c1cccc(Nc2nc(-c3cccnc3)cs2)c1 [compound 908, N-(3-(trifluoromethyl)phenyl)-4-(pyridin-3-yl)thiazol-2-amine] | < 1000 |
| O=C(O)Cc1ccc(Nc2nc(-c3cccnc3)cs2)cc1 [compound 909, 2-(4-(4-(pyridin-3-yl)thiazol-2-ylamino)phenyl)acetic acid] | > 10000 |
| Cc1noc(NS(=O)(=O)c2ccc(Nc3nc(-c4cccnc4)cs3)cc2)c1C [compound 910] | > 10000 |
| O=S(=O)(Nc1ccccn1)c1ccc(Nc2nc(-c3cccnc3)cs2)cc1 [compound 911] | > 10000 |
| Fc1cc(Nc2nc(-c3cccnc3)cs2)ccc1OCCCCc1ccccc1 [compound 912, N-(4-(4-phenylbutoxy)-3-fluorophenyl)-4-(pyridin-3-yl)thiazol-2-amine] | < 1000 |
| CCCCCCCCOc1ccc(Nc2nc(-c3cccnc3)c(C#N)s2)cc1C(F)(F)F [compound 913, 2-(3-(trifluoromethyl)-4-(octyloxy)phenylamino)-4-(pyridin-3-yl)thiazole-5-carbonitrile] | 1000 to 10000 |
| CCCCCCCCOc1ccc(Nc2nc(-c3cccnc3)c(F)s2)cc1C(F)(F)F [compound 914, 5-fluoro-N-(3-(trifluoromethyl)-4-(octyloxy)phenyl)-4-(pyridin-3-yl)thiazol-2-amine] | < 1000 |

| SMILES | EC50 [nM] |
| --- | --- |
| CCCCCCCCOc1ccc(Nc2nc(-c3csc(C)n3)cs2)cc1C(F)(F)F [compound 915, N-(3-(trifluoromethyl)-4-(octyloxy)phenyl)-4-(2-methylthiazol-4-yl)thiazol-2-amine] | < 1000 |
| CCCCCCCCOc1ccc(Nc2nc(-c3csc(N)n3)cs2)cc1C(F)(F)F [compound 916, 4-(2-(3-(trifluoromethyl)-4-(octyloxy)phenylamino)thiazol-4-yl)thiazol-2-amine] | < 1000 |
| CCCCCCCCOc1ccc(Nc2nc(C(=O)CSc3ccccn3)cs2)cc1C(F)(F)F [compound 917, 1-(2-(3-(trifluoromethyl)-4-(octyloxy)phenylamino)thiazol-4-yl)-2-(pyridin-2-ylthio)ethanone] | 1000 to 10000 |
| CCCCCCCCOc1ccc(Nc2nc(-c3cccnc3)c(Cl)s2)cc1C(F)(F)F [compound 918, 5-chloro-N-(3-(trifluoromethyl)-4-(octyloxy)phenyl)-4-(pyridin-3-yl)thiazol-2-amine] | < 1000 |
| COc1ncc(-c2csc(Nc3ccc4c(ccn4Cc4ccc(F)cc4)c3)n2)cn1 [compound 919, 1-(4-fluorobenzyl)-N-(4-(2-methoxypyrimidin-5-yl)thiazol-2-yl)-1H-indol-5-amine] | 1000 to 10000 |
| c1ccc(CCCOc2ccc(Nc3nc(-c4cccnc4)cs3)cc2)cc1 [compound 920, N-(4-(3-phenylpropoxy)phenyl)-4-(pyridin-3-yl)thiazol-2-amine] | < 1000 |
| c1ccc(CCCCOc2ccc(Nc3nc(-c4cccnc4)cs3)cc2)cc1 [compound 921, N-(4-(4-phenylbutoxy)phenyl)-4-(pyridin-3-yl)thiazol-2-amine] | < 1000 |
| c1cncc(-c2csc(Nc3ccc(OCCCCc4cccs4)cc3)n2)c1 [compound 922, N-(4-(4-(thiophen-2-yl)butoxy)phenyl)-4-(pyridin-3-yl)thiazol-2-amine] | < 1000 |
| CCCCCCCCOc1ccc(Nc2nc(-c3cccnc3)c(N)s2)cc1C(F)(F)F [compound 923, N^2-(3-(trifluoromethyl)-4-(octyloxy)phenyl)-4-(pyridin-3-yl)thiazole-2,5-diamine] | < 1000 |
| FC(F)(F)c1cc(Nc2nc(-c3cccnc3)cs2)ccc1OCCCOc1ccccc1 [compound 924, N-(4-(3-phenoxypropoxy)-3-(trifluoromethyl)phenyl)-4-(pyridin-3-yl)thiazol-2-amine] | < 1000 |
| O=C(O)Cc1ccc(-c2csc(Nc3ccc(OCCCCc4cccs4)c(C(F)(F)F)c3)n2)s1 [compound 925, 2-(5-(2-(4-(4-(thiophen-2-yl)butoxy)-3-(trifluoromethyl)phenylamino)thiazol-4-yl)thiophen-2-yl) acetic acid] | < 1000 |
| CCOC(=O)Cc1ccc(-c2csc(Nc3ccc(OCCCCc4cccs4)c(C(F)(F)F)c3)n2)s1 [compound 926, ethyl 2-(5-(2-(4-(4-(thiophen-2-yl)butoxy)-3-(trifluoromethyl)phenylamino)thiazol-4-yl)thiophen-2-yl)acetate] | 1000 to 10000 |
| O=C(O)Cc1ccc(-c2csc(Nc3ccc(OCCCCc4ccccc4)c(C(F)(F)F)c3)n2)s1 [compound 927, 2-(5-(2-(4-(4-phenylbutoxy)-3-(trifluoromethyl)phenylamino)thiazol-4-yl)thiophen-2-yl)acetic acid] | < 1000 |
| CCOC(=O)Cc1ccc(-c2csc(Nc3ccc(OCCCCc4ccccc4)c(C(F)(F)F)c3)n2)s1 [compound 928, ethyl 2-(5-(2-(4-(4-phenylbutoxy)-3-(trifluoromethyl)phenylamino)thiazol-4-yl)thiophen-2-yl)acetate] | 1000 to 10000 |
| O=C(O)Cc1ccc(-c2csc(Nc3ccc(OCCCCc4ccccc4)c(F)c3)n2)s1 [compound 929, 2-(5-(2-(4-(4-phenylbutoxy)-3-fluorophenylamino)thiazol-4-yl)thiophen-2-yl)acetic acid] | < 1000 |
| CCOC(=O)Cc1ccc(-c2csc(Nc3ccc(OCCCCc4ccccc4)c(F)c3)n2)s1 [compound 930, ethyl 2-(5-(2-(4-(4-phenylbutoxy)-3-fluorophenylamino)thiazol-4-yl)thiophen-2-yl)acetate] | 1000 to 10000 |
